From patent publication US20060134779A1, “Modulation of cell intrinsic strain to control cell modulus, matrix synthesis, secretion, organization, material properties and remodeling of tissue engineered constructs” (priority 2004, published 2006)
Entries after “also recorded” stand apart in the source; their conditions may differ.

What was measured:
gel matrix = experiment: Gel matrix contraction in a culture system; assay type: cell-based
elastin = experiment: Quantitative RT-PCR gene expression in BATs: elastin; assay type: cell-based, human
Procedure: (§1) Primary human tendon internal fibroblasts (HTIFs) were isolated from discarded human tendon tissue as described previously (Banes et al., J. Ortho Res., 6, 73-82, 1988). HTIFs from passage 2 to 4 were used in this study. BATs™ were fabricated at a cell density of 2 million cells/ml collagen gel suspension (Vitrogen). Cells were incubated at 37° C. for 24 h before addition of 100 pM IL-1β and inhibitors. BAT™ images were recorded with a scanner and automated imaging software, ScanFlex™ (Flexcell International Corp.). Medium was refreshed every 24 h. On day 5, BATs™ were collected, total RNA extracted with an RNeasy mini kit (QIAGen), cDNA synthesized with SuperScriptII (Invitrogen) and quantitative PCR carried out using a quantitative PCR kit from Ambion. The PCR products were separated on 2% agarose gels and the bands were quantitated in Photoshop. The elasticity of BATs™ was tested on day 5. BATs™ were subjected to a maximum stretch (20% elongation, 1 Hz for 1 h) and the BAT™ images were recorded for 24 h after stretch.

[1] = test system: human tendon internal fibroblast (HTIF)-populated bioartificial tendons (BATs); experiment: Contraction of HTIF-populated BATs (scanner imaging); assay type: cell-based; settings: 100 pM IL-1β, 24 h post addition
Procedure: as §1

[2] = test system: human tendon internal fibroblast (HTIF)-populated bioartificial tendons (BATs); experiment: Elasticity of BATs: length recovery after maximum stretch; assay type: cell-based; settings: 100 pM IL-1β
Source text: In order to find a better therapeutic method for tendon/ligament repair and/or replacement, several in vitro models for engineered tendon have been developed recently (Awad et al., J. Biomed. Mater Res., 51(2), 233-240, 2000). One of them is a BioArtificial Tendon (BAT™) model system utilizing tenocyte-populated molded collagen gels (Awad et al., J. Biomed. Mater Res., 51(2), 233-240, 2000). This 3D BAT™ system allows the testing of tenocyte responses to drugs, cytokines and mechanical loading but is too weak to replace conventional grafts materials. In an attempt to modulate the material properties of the cell-gel composite, the influence of IL-1β on the elasticity of human tendon internal fibroblast (HTIF)-populated bioartificial tendons (BATs™) was investigated. IL-1β has been reported to increase the expression of matrix metalloproteinases (MMPs) and elastin. It was hypothesized that IL-1 might increase the elasticity of BATs™ by up-regulating the expression of elastin and down-regulating matrix protein (Collagen type I) expression. Gene expression was quantified with quantitative RT-PCR. The elasticity of BATs™ was determined by length recovery after stretch. The influence of IL-1β on the actin cytoskeleton and integrin attachment to matrix in BATs™ also was tested +/−cytochalasin D or GRGDTP, respectively.
as §1, with “BATs™ were fabricated at a cell density of 2 million cells/ml collagen gel suspension (Vitrogen). Cells were incubated at 37° C. for 24 h before addition of 100 pM IL-1β and inhibitors.” left out, “Medium was refreshed every 24 h.” left out, “The elasticity of BATs™ was tested on day 5.” left out

MMPs 1, 2, 3 = experiment: Quantitative RT-PCR gene expression in BATs: MMPs; assay type: cell-based, human; settings: 100 pM IL-1β, day 5
Procedure: as §1

Collagen type I = experiment: Quantitative RT-PCR gene expression in BATs: Collagen type I; assay type: cell-based, human; settings: 100 pM IL-1β, day 5
Procedure: as §1

[3] = test system: human tendon internal fibroblasts (HTIFs); experiment: Young's modulus of HTIFs by micropipette aspiration; assay type: cell-based; settings: young and adult patients (FIG. 13)
Procedure: (§2) Primary HTIFs were isolated after surgery from discarded human tendon tissue as described previously (Banes et al., J. Ortho Res., 6, 73-82, 1988). HTIFs from passage 2 to 4 were used in this study. HTIFs were allowed to attach and spread for 24 h before addition of 100 pM IL-1β. Medium was refreshed every 24 h. On day 5, cells were collected for cell modulus measurement and gene expression analysis. Young's modulus of HTIFs was measured by aspirating a cell into the bore of a calibrated micropipette with a calibrated vacuum source. The cell-aspiration process was videotaped for subsequent data analysis to calculate the pipette bore size, the steady state pressure required to aspirate a segment of a cell into the pipette bore and the time constant for aspiration. Cytoskeleton change was monitored by rhodamine-phalloidin staining. The expression levels of β-actin was determined by quantitative RT-PCR. Total RNA was extracted with an RNeasy mini kit (QIAGen), cDNA was synthesized with SuperScriptII (Invitrogen) and quantitative PCR was carried out using 18S rRNA as an internal control (Ambion). The PCR products were separated on 2% agarose gels and pixel intensity of the bands was quantitated in Photoshop.

β-actin [4] = experiment: β-actin expression by quantitative RT-PCR in HTIFs; assay type: cell-based, human; settings: for reduction of the message of β-actin: 24 h post addition
Procedure: as §2, with “On day 5, cells were collected for cell modulus measurement and gene expression analysis.” left out

β-actin [5] = experiment: Cytoskeleton change by rhodamine-phalloidin staining in HTIFs; assay type: cell-based, human; settings: 100 pM IL-1β
Procedure: as §2

[6] = test system: human tendon internal fibroblast (HTIF) populated bioartificial tendons (BATs); experiment: Material properties (modulus) of HTIF-populated BATs; assay type: cell-based
cell modulus = settings: cited from earlier work
[7] = 20% elongation, 1 Hz for 1 h, day 5

In the case of `Nc1ncnc2c1ncn2[C@@H]1O[C@H](COP(=O)(O)OP(=O)(O)OP(=O)(O)O)[C@@H](O)[C@H]1O` [ATP, adenosine triphosphate], the gel matrix contraction (gel matrix) is reported as “retard”.
With GRGDTP the “elastin mRNA level” value (elastin; 100 μg/ml GRGDTP alone) was “did not affect” and the “stimulation of elastin mRNA by IL-1” value (elastin; 100 μg/ml GRGDTP with 100 pM IL-1β) was “reduced”.
In the case of interleukin-1beta [IL-1β], the “contraction of BATs” value [1] is reported as “reduced”, the “elasticity of BATs” value ([2]; tested on day 5) is reported as “increased” and the “survival of maximum stretch” value [2, 7] is reported as “survived”. For the same molecule, the “time for elongated BATs to recover to original length post stretch” value [2, 7] was 8 h, the “expression of MMPs 1, 2, 3” value (MMPs 1, 2, 3) was “up-regulated; also recorded: up-regulation” and the expression of elastin (elastin; 100 pM IL-1β, day 5) was “up-regulated”. For the same molecule, the “expression of Collagen type I” value (Collagen type I) was “down-regulated”, the “cell modulus of monolayer HTIFs” value [3] was “reduced” and the “reduction of the message of β-actin” value (β-actin [4]; 100 pM IL-1β, 2D cultures) was “more than 50%”. The “reduction of the message of β-actin” value (β-actin [4]; 100 pM IL-1β, 3D cultures) was “more than 50%”, the “message level of β-actin” value (β-actin [4]; 100 pM IL-1β, day 3, 3D cultures) was “returned to normal” and the “expression of β-actin” value (β-actin [4]; 2D cultures, days 1 and 3 (FIG. 14A)) was “reduced”. The “cells with cytoskeletal structure disrupted” value (β-actin [5]; 2D cultures) was “about 20%”, the “protein level of β-actin” value (β-actin [5]; 2D cultures, day 3) was “further reduced” and the “protein level of β-actin” value (β-actin [5]; 2D cultures, day 5) was “mostly recovered”. For the same molecule, the “increase of intercellular space at the perpendicular direction of BATs” value (β-actin [5]; 3D BATs, days 1 and 3) was “more than 100%”, the “fluorescence intensity of rhodamine-phalloidin staining compared to control” value (β-actin [5]; 3D bioartificial tendons, day 5) was “much lower” and the “protein level of β-actin” value (β-actin [5]; rhodamine-phalloidin staining) was “down regulated”. The “modulus of BATs” value [6] was “reduced”.
For `C=C1[C@@H](C)[C@H]2[C@H](Cc3ccccc3)NC(=O)[C@]23[C@H](OC(C)=O)/C=C/[C@@](C)(O)C(=O)[C@@H](C)C/C=C/[C@H]3[C@@H]1O` [cytochalasin D], the “decrease of cell modulus” value (cell modulus) is listed as “up to three fold”.
